Test results published in patent publication US20150094229A1, “METHODS FOR THE SCREENING OF ANT[…]” (priority 2005, published 2015).
Entries after “also recorded” stand apart in the source; their conditions may differ. Where a SMILES comes first, the peptide text is derived from it. Where no end group is shown, it is not given here. [ ]: non-standard residue; d: D form.

Legend:
[1] = system: L,D-transpeptidase of E. faecium M512 (Ldtfm); experiment: Standard radioactive exchange assay (Ac2-L-Lys-D-Ala and D-[14C]Ala); type: biochemical, Enterococcus faecium; settings: for use as donor: formation of radioactive peptides with D-[14C]Ala as the acceptor: 3 μg Ldtfm, 60 min, donor 1-5 mM
Description: (§1) FIG. 9 (Ex FIG. 2). Identification and characterization of the L,D-transpeptidase of E. faecium M512. (A) Purification of the L,D-transpeptidase from an E. faecium M512 extract (lane 1) led to partial purification of a 48-kDa protein (lane 2). (B) The open reading frame for the 48-kDa protein was identified based on N-terminal sequencing ([…] [SEQ ID No 20], underlined) and similarity searches in the partial genome sequence of E. faecium. The partially purified 48-kDa protein corresponded to a proteolytic fragment since the sequence encoding its N-terminus was not preceded by a translation initiation codon. The upstream sequence contained a single likely translation initiation site (ACTTAAggag[…]atg [SEQ ID No 21]), consisting of an ATG initiation codon preceded by a putative ribosome binding site (lower case). The proteolytic cleavage removed the first 118 residues of the protein, including a cluster of hydrophobic residues at positions 13 to 28 (italicized), which could correspond to a membrane anchor. The C-terminus of Ldtfm (positions 340 to 466; bold) was related to a family of 341 sequences from eubacteria appearing in the Protein Families Database of Alignments under the pfam accession number PF03734. Ser439 and Cys442 (asterisks) are potential catalytic residues. (C) The portion of the open reading frame encoding the soluble protein partially purified form the E. faecium extract (positions 119 to 466) was cloned into E. coli and Ldtfm was purified with an overall yield of 3 mg per liter of culture. (D) The purified protein was active in an exchange reaction which assays for the capacity of the enzyme to catalyze cleavage of the L-Lys-D-Ala peptide bond of the model donor dipeptide substrate N^α,N^ε-diacetyl-L-lysyl-D-alanine (Ac2-L-Lys-D-Ala) and formation of a peptide bond between Ac2-L-Lys and D-[^14C]Ala. […] (F) The exchange assay was also performed with non-radioactive 2-amino and 2-hydroxy acids based on detection of the products by mass spectrometry and determination of their structure by tandem mass spectrometry, as exemplified by the fragmentation of Ac2-L-Lys-D-Met (m/z of 362.24). Loss of a C-terminal D-Met and of additional H2O led to ions at m/z 213.14 and 185.14, respectively. Ions at m/z 84.10 and 126.11 correspond to the immonium of L-Lys and its acetylated form, respectively.
Preferably, the L,D-transpeptidase activity is assessed by performing a standard exchange assay that is based on incubation of non-radioactive Ac2-L-Lys-D-Ala and D-[^14C]Ala and determination of Ac2-L-Lys-D[^14C]Ala formed by the L,D-transpeptidase catalytic activity, such as disclosed by Mainardi et al. (J. L. Mainardi et al., J. Biol. Chem. 277, 35801 (2002)) as well as in the examples herein.
In an illustrative embodiment of said standard exchange assay, a reaction mixture is provided, which reaction mixture contains (i) purified L,D-transpeptidase, (ii) Ac2-L-Lys-D-Ala, (iii) D-[^14C]Ala and (iv) optionally the candidate inhibitor compound. Then the enzyme reaction is performed until completion, generally during a time period of […], most preferably […], at a temperature range comprised between 36° C. and 38° C., advantageously between 36.5° C. and 37.5° C., most preferably at 37° C. Then, the enzyme reaction is stopped, for example by boiling the resulting reaction product mixture for a time period sufficient to inactivate the enzyme, such as for a period of time ranging from 3 min to 20 min, most preferably a period of time of about 15 min.
Then, the resulting reaction product mixture is centrifuged and a sample collected from the supernatant of centrifugation is analysed by chromatography, preferably by carrying out a reverse phase high-pressure liquid chromatography (rpHPLC), most preferably with isocratic elution.
Detection of the labeled reaction product resulting from the L,D-transpeptidase catalytic activity may be performed simultaneously with said chromatographic step. […]

Ldtfm [2] = experiment: Exchange assay with non-radioactive 2-amino and 2-hydroxy acid acceptors, products detected by mass spectrometry; type: biochemical, Enterococcus faecium; settings: for Product Relative intensity (%): ionic current intensity (product/product + substrate), donor Ac2-L-Lys-D-Ala 0.3 mM, acceptor 0.3 mM, Ldtfm (3 g), 1 h at 37° C.; for use as acceptor substrate in the exchange reaction with Ac2-L-Lys-D-Ala as the donor: result in words
Description: as §1
To gain insight in the activity of Ldtfm, various 2-amino and 2-hydroxy acids were tested as potential acceptor substrates (Table 2) in an exchange reaction using the model dipeptide substrate Ac2-L-Lys-D-Ala as the donor (FIG. 9F). […] Hydrolysis of the C-terminal D-Ala of Ac2-L-Lys-D-Ala was not detected in the presence of a suitable acceptor substrate, indicating a biosynthetic function for Ldtfm, in contrast to the previously characterized L,D-carboxypeptidase involved in peptidoglycan recycling in E. coli (Templin et al., 1999).

[3] = biological target: T1, D-aspartate ligase (membrane or cytoplasmic extracts of E. faecium D359V8) (Enterococcus faecium, UniProt H8L902); experiment: D-aspartate ligase assay (in vitro addition of D-aspartate onto UDP-MurNac-pentapeptide); type: biochemical; settings: 60 μg membrane or cytoplasmic extracts, 2 hours at 37° C.
T1 construct: membrane or cytoplasmic extracts (60 μg); endogenous in cells; host or cells: Enterococcus faecium D359V8, crude membrane and cytoplasmic extracts
Procedure: FIG. 2. […] Crude cytoplasmic extract (60 μg of protein) of E. faecium D359V8 were incubated for 2 h with UDP-MurNac-pentapeptide ([…]), D-[^14C]aspartic acid (0.11 mM, 55 mCi/mmol), ATP (20 mM) and MgCl2 (50 mM). D-[^14C]aspartic acid was separated from [^14C]UDP-MurNac-hexapeptide by descending paper chromatography. […] (+) presence of cytoplasmic extracts; (−) absence of crude extracts.
The assay was performed in a total volume of 25 μl containing Tris-Hcl (100 mM, pH 8.5), MgCl2 (50 mM), ATP (20 mM), D-[^14C]aspartic acid (0.11 mM, 55 mCi/mmol, Isobio, Fleurus, Belgium), UDP-MurNac-pentapeptide (0.15 mM) purified from S. aureus as previously described (Billot-Klein et al., 1997), and membrane or cytoplasmic extracts (60 μg). The reaction mixture was incubated 2 h at 37° C. and the reaction was stopped by boiling the samples for 3 min. […] The products of the reaction were also separated by reverse phase high-pressure liquid chromatography (rpHPLC) on a Hypersil C18 column ([…], 4.6×250 […], Interchrom, Montlugon, France) at a flow rate of 0.5 ml/min using isocratic elution (10 mM ammonium acetate, pH 5.0) and detected by the absorbance at 262 nm and liquid scintillation with a Radioflow Detector (LB508; Perkin Elmer, Courtaboeuf, France) coupled to the HPLC apparatus (L-62000A; Merck, Nogent-Sur-Marne, France). […]

E. faecium M512 = settings: mutant E. faecium M512; cited from earlier work
Ldtfm [4] = experiment: In vitro transpeptidation (formation of dimers from monomeric muropeptides, mass spectrometry); type: biochemical, Enterococcus faecium; settings: pool of three muropeptides, Ldtfm 3 μg, 2 h at 37° C.
Procedure: FIG. 10 (Ex FIG. 3). […] (A) Ldtfm was incubated with a pool of three monomeric muropeptides containing the disaccharide GlcNAc-MurNAc substituted by three different stem peptides. […] Tetrapeptide-iAsn, L-Ala-D-iGln-L-(M-D-iAsn)Lys-D-Ala; Tripeptide-iAsn, L-Ala-D-iGln-L-(M-D-iAsn)Lys; Tetrapeptide, L-Ala-D-iGln-L-Lys-D-Ala. (B) Fragmentation was performed on the muropeptide lactoyl dimer at m/z 1118.5 which was obtained by ammonium hydroxide treatment of the dimer with a monoisotopic mass of 1927.88. The treatment cleaved off the disaccharide and converted D-iAsn into D-iAsp. (C) Structure of the dimer and inferred fragmentation pattern. […]
To assay for in vitro transpeptidation, the L,D-transpeptidase (3 μg) was incubated with the momomeric muropeptides GlcNAc-MurNAc-L-Ala-D-iGln-L-(M-D-iAsn)Lys-D-Ala (25 nmoles), GlcNAc-MurNAc-L-Ala-D-iGln-L-(M-D-iAsn)Lys (5 nmoles) and GlcNAc-MurNAc-L-Ala-D-iGln-L-Lys-D-Ala (5 nmoles) for 2 h at 37° C. in 25 μl of 5 mM sodium phosphate buffer (pH 6.0). The reaction was stopped by boiling the sample for 3 min and the mixture was centrifuged (10,000×g, 2 min). […] For tandem mass spectrometry analysis, the remaining of the reaction mixture was treated with ammonium hydroxyde to cleave the ether link internal to MurNAc (Arbeloa et al., 2004). The conditions for fragmentation of the resulting lactoyl-peptides with N2 as the collision gas were as previously described (Arbeloa et al., 2004).

CC(=O)NCCCC[C@H](NC(C)=O)C(=O)N[C@H](C)C(=O)O [Ac2-L-Lys-D-Ala, N^α,N^ε-diacetyl-L-lysyl-D-alanine] (Ac-Lys(Ac)-[dA]-OH)
use as donor: formation of radioactive peptides with D-[14C]Ala as the acceptor [1]: used as donors

C[C@@H](O)C(=O)O [D-lactic acid]
Product Relative intensity (%) (Ldtfm [2]): 37% | use as acceptor substrate in the exchange reaction with Ac2-L-Lys-D-Ala as the donor (Ldtfm [2]): Formation of depsipeptides

O=C(O)C[C@@H](O)C(=O)O [D-malic acid]
Product Relative intensity (%) (Ldtfm [2]): 10% | use as acceptor substrate in the exchange reaction with Ac2-L-Lys-D-Ala as the donor (Ldtfm [2]): Formation of depsipeptides

NCC(=O)O [Glycine]
Product Relative intensity (%) (Ldtfm [2]): 15%

N[C@@H](CC(=O)O)C(=O)O [L-[^14C]aspartate]
formation of hexapeptide when D-[14C]aspartate is replaced [3]: No hexapeptide was formed

CC(=O)N[C@H]1[C@@H](OP(=O)(O)OP(=O)(O)OC[C@H]2O[C@@H](n3ccc(=O)[nH]c3=O)[C@H](O)[C@@H]2O)O[C@H](CO)[C@@H](O)[C@@H]1O[C@H](C)C(=O)N[C@@H](C)C(=O)N[C@H](CCC(=O)N[C@@H](CCCCN)C(=O)N[C@H](C)C(=O)N[C@H](C)C(=O)O)C(=O)O [UDP-MurNAc-pentapeptide, UDP-N-acetylmuramyl-L-Ala-D-iGlu-L-Lys-D-Ala-D-Ala]
use as donor: formation of radioactive peptides with D-[14C]Ala as the acceptor [1]: not detected

CC1(C)S[C@@H]2[C@H](NC(=O)[C@H](N)c3ccccc3)C(=O)N2[C@H]1C(=O)O [ampicillin]
minimal inhibitory concentration (E. faecium M512): > 2000 µg/mL | inhibition of Ldtfm in the exchange assay ([1]; Ldtfm 3 μg, Ac2-L-Lys-D-Ala 0.3 mM, D-[14C]Ala 0.15 mM, various concentration of ampicillin): absence of inhibition; also recorded: not inhibited

GlcNAc-MurNAc-L-Ala-D-iGln-L-(M-D-iAsn)Lys-D-Ala [tetrapeptide-iAsn]
use as donor in formation of dimers (Ldtfm [4]): formation of dimers

GlcNAc-MurNAc-L-Ala-D-iGln-L-Lys-D-Ala
use as acceptor in formation of dimers (Ldtfm [4]): not used as an acceptor | use as donor in formation of dimers (Ldtfm [4]): formation of dimers

GlcNAc-MurNAc-L-Ala-D-iGlu-L-(N^ε-D-iAsn)Lys-D-Ala [GlcNAc-MurNAc-tetrapeptide-iAsn]
use as donor: formation of radioactive peptides with D-[14C]Ala as the acceptor [1]: used as donors

GlcNAc-MurNAc-L-Ala-D-iGlu-L-(N^ε-D-iAsn)Lys-D-Ala-D-Ala [GlcNAc-MurNAc-pentapeptide-iAsn]
use as donor: formation of radioactive peptides with D-[14C]Ala as the acceptor [1]: not detected

L-Ala-D-iGlu-L-Lys-D-Ala (A[diGlu]K[dA]) [tetrapeptide]
use as donor: formation of radioactive peptides with D-[14C]Ala as the acceptor [1]: used as donors

L-Ala-D-iGlu-L-Lys-D-Ala-D-Ala [pentapeptide]
use as donor: formation of radioactive peptides with D-[14C]Ala as the acceptor [1]: not detected

N^α,N^ε-diacetyl-L-lysine-D-alanyl-D-alanine [Ac2-L-Lys-D-Ala-D-Ala]
use as donor: formation of radioactive peptides with D-[14C]Ala as the acceptor [1]: not detected

UDP-MurNAc-L-Ala-D-iGlu-L-Lys-D-Ala [UDP-MurNAc-tetrapeptide]
use as donor: formation of radioactive peptides with D-[14C]Ala as the acceptor [1]: used as donors
